According to ChEMBL document CHEMBL5241122, “A concise review on marine bromopyrrole alkaloids as anticancer agents” (Bioorg Med Chem Lett, 2023):
Each block holds one compound with its values, some of them ahead of it.

Experiments:
L1210 = test: Cytotoxicity against mouse L1210 cells; assay type: functional, cell-based
NCI-H460 = test: Inhibition of cell growth in human NCI-H460 cells by SRB assay; assay type: functional; settings: read-out: ED50 (the source's name)
SK-MEL-5 = test: Inhibition of cell growth in human SK-MEL-5 cells by SRB assay; assay type: functional; settings: read-out: ED50 (the source's name)
SF-295 = test: Inhibition of cell growth in human SF-295 cells by SRB assay; assay type: functional; settings: read-out: ED50 (the source's name)
OVCAR-3 = test: Inhibition of cell growth in human OVCAR-3 cells by SRB assay; assay type: functional; settings: read-out: ED50 (the source's name)
A498 = test: Inhibition of cell growth in human A498 cells by SRB assay; assay type: functional; settings: read-out: ED50 (the source's name)
KM-20L2 = test: Inhibition of cell growth in human KM-20L2 cells by SRB assay; assay type: functional; settings: read-out: ED50 (the source's name)
HepG2 = test: Cytotoxicity against human HepG2 cells incubated for 72 hrs by MTT assay; assay type: functional, cell-based; settings: HepG2, 72 h
LoVo [1] = test: Cytotoxicity against human LoVo cells incubated for 72 hrs by MTT assay; assay type: functional, cell-based
Bel-7402 = test: Cytotoxicity against human Bel-7402 cells incubated for 72 hrs by MTT assay; assay type: functional, cell-based; settings: Bel-7402, 72 h
MCF7 [2] = test: Cytotoxicity against human MCF7 cells incubated for 72 hrs by MTT assay; assay type: functional, cell-based; settings: MCF7, 72 h
CNE = test: Cytotoxicity against human CNE cells incubated for 72 hrs by MTT assay; assay type: functional, cell-based
HeLa = test: Cytotoxicity against human HeLa cells incubated for 72 hrs by MTT assay; assay type: functional, cell-based
LoVo [3] = test: Inhibition of cell growth in human LoVo cells by SRB assay; assay type: functional, cell-based
[4] = Inhibition of recombinant human MAPK expressed in Escherichia coli assessed as reduction in MEK-1 phosphorylation incubated for 60 mins by ELISA assay
[5] = target: Cyclin-dependent kinase 4 (Homo sapiens, UniProt P11802); test: Inhibition of CDK4 (unknown origin)
Chain of Cyclin-dependent kinase 4 (P11802 whole entry): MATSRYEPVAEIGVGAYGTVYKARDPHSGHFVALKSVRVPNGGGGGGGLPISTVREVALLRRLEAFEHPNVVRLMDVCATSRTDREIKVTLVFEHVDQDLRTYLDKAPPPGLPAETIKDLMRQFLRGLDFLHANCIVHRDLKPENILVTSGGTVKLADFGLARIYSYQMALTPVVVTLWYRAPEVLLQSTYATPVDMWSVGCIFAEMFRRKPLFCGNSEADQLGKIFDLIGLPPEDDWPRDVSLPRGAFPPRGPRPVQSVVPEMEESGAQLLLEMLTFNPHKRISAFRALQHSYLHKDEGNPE

[6] = target: Receptor tyrosine-protein kinase erbB-2 (Homo sapiens, UniProt P04626); test: Inhibition of c-ErbB-2 (unknown origin)
Chain of Receptor tyrosine-protein kinase erbB-2 (P04626 whole entry): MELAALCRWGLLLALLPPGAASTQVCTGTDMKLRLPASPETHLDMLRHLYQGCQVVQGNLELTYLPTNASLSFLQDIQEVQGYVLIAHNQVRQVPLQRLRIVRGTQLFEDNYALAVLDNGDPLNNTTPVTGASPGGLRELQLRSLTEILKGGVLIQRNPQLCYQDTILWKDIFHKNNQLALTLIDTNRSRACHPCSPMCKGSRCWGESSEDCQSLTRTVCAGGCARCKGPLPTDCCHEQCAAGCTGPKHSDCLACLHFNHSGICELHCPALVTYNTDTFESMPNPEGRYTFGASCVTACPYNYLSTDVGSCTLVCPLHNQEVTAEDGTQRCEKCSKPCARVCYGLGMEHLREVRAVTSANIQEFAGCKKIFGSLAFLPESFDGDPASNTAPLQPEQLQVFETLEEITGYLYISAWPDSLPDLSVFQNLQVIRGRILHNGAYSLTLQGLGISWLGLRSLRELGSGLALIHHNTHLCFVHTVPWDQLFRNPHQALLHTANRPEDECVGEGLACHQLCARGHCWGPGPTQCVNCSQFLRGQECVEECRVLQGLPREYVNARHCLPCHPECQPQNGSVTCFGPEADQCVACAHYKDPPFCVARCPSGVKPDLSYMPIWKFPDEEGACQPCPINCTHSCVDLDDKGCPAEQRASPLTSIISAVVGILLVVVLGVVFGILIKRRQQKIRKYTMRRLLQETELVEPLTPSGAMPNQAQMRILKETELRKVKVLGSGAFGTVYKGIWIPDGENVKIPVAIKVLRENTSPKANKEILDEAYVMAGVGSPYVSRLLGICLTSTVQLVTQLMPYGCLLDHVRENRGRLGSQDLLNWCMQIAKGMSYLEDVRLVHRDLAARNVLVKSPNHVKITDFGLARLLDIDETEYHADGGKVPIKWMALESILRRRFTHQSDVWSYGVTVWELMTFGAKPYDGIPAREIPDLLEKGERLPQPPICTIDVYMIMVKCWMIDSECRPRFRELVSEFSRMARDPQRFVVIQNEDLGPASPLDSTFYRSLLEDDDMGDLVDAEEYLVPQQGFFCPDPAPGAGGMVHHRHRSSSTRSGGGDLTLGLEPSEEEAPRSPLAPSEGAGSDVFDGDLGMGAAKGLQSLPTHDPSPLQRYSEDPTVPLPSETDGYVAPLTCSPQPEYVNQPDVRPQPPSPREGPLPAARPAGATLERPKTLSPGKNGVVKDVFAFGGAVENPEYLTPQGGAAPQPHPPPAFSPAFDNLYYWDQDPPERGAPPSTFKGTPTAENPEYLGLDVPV

P388 = test: Cytotoxicity against mouse P388 cells; assay type: functional, cell-based
Jurkat = test: Antiinflammatory activity in PMA induced human Jurkat cells assessed as inhibition of IL-2 production by EIA assay; assay type: functional, cell-based
WRL68 = test: Cytotoxicity against human WRL68 cells by MTT assay; assay type: functional, cell-based
Caco-2 = test: Cytotoxicity against human Caco-2 cells by MTT assay; assay type: functional, cell-based
MCF7 [7] = test: Cytotoxicity against human MCF7 cells by MTT assay; assay type: functional, cell-based
[8] = target: E3 ubiquitin-protein ligase CBL-B (Homo sapiens, UniProt Q13191); test: Inhibition of Cbl-b (unknown origin) assessed as inhibition of Cbl-b dependent ubiquitination in presence of ATP measured after 13 hrs by fluorescence microplate reader assay
Chain of E3 ubiquitin-protein ligase CBL-B (Q13191 whole entry): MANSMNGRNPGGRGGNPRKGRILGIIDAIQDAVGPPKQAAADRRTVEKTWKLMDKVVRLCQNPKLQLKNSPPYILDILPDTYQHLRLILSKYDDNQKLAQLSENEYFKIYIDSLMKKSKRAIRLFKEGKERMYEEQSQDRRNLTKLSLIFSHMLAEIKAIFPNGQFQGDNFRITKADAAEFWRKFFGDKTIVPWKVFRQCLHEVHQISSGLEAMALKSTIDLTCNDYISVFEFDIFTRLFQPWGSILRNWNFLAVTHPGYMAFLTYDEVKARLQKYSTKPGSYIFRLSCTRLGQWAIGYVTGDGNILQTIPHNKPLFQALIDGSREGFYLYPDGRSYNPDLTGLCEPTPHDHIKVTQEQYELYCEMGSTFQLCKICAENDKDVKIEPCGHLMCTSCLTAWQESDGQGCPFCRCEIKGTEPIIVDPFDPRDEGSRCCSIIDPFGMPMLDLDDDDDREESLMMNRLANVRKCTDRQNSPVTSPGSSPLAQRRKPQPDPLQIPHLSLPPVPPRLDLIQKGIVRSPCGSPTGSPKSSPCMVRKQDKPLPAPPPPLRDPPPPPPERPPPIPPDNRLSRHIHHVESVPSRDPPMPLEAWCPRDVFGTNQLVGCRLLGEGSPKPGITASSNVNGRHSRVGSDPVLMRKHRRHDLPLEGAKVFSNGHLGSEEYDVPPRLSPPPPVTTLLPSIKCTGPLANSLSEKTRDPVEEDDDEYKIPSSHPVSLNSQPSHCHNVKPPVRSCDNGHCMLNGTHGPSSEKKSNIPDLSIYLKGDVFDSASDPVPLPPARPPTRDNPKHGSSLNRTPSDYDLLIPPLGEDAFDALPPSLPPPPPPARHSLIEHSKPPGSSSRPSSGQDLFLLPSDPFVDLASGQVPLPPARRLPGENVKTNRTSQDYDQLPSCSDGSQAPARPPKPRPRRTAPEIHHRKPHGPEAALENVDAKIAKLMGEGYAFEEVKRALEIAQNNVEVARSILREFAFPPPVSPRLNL

HCT-116 = test: Antiproliferative activity against human HCT-116 cells incubated for 72 hrs by SRB assay; assay type: functional, cell-based; settings: HCT-116, 72 h
K562 [9] = test: Antiproliferative activity against human K562 cells incubated for 72 hrs by SRB assay; assay type: functional, cell-based; settings: K562, 72 h
A549 [10] = test: Antiproliferative activity against human A549 cells incubated for 72 hrs by SRB assay; assay type: functional, cell-based; settings: A549, 72 h
SNU-638 = test: Antiproliferative activity against human SNU-638 cells incubated for 72 hrs by SRB assay; assay type: functional, cell-based; settings: SNU-638, 72 h
MDA-MB-231 [11] = test: Antiproliferative activity against human MDA-MB-231 cells incubated for 72 hrs by SRB assay; assay type: functional, cell-based; settings: MDA-MB-231, 72 h
SK-HEP1 = test: Antiproliferative activity against human SK-HEP1 cells incubated for 72 hrs by SRB assay; assay type: functional, cell-based; settings: SK-HEP1, 72 h
MDA-MB-231 [12] = test: Cytotoxicity against human MDA-MB-231 cells assessed as cell growth inhibition by cell based assay; assay type: functional
HT-29 = test: Cytotoxicity against human HT-29 cells assessed as cell growth inhibition by cell based assay; assay type: functional
A549 [13] = test: Cytotoxicity against human A549 cells assessed as cell growth inhibition by cell based assay; assay type: functional
PSN1 = test: Cytotoxicity against human PSN1 cells assessed as cell growth inhibition by cell based assay; assay type: functional
KB = test: Cytotoxicity against human KB cells; assay type: functional, cell-based
K562 [14] = test: Cytotoxicity against human K562 cells; assay type: functional, cell-based

IC50 (LoVo [3]): 3 nM | IC50 [4]: 3 nM
SMILES: NC1=N/C(=C2\CCNC(=O)c3[nH]c(Br)cc32)C(=O)N1

IC50 [5]: 98.5 µM | IC50 [6]: 21 µM
SMILES: N=C1NC(=O)/C(=C2/CCNC(=O)c3[nH]c(Br)c(Br)c32)N1

IC50 [5]: 29.6 µM | IC50 [6]: 18.5 µM
SMILES: N=C1NC(=O)/C(=C2/CCNC(=O)c3[nH]cc(Br)c32)N1

IC50 (Jurkat): 3.5 µM
SMILES: NC1=NC(=O)/C(=C2\CCNC(=O)c3[nH]c4ccccc4c32)N1

IC50 (HCT-116): 9.93 µM | IC50 (K562 [9]): 12.9 µM | IC50 (A549 [10]): 31.3 µM | IC50 (SNU-638): 7.92 µM | IC50 (MDA-MB-231 [11]): 32.8 µM | IC50 (SK-HEP1): 35.2 µM
SMILES: NC1=NC(=O)C([C@@H]2[C@@H](CNC(=O)c3cc(Br)c[nH]3)[C@H](CNC(=O)c3cc(Br)c[nH]3)[C@H]2C2NC(N)=NC2=O)N1 (stereo not given in full)

IC50 [8]: 18 µM
SMILES: Cn1c(Br)ccc1C(=O)NC[C@H]1CC2N=C(N)NC2[C@@H](c2c[nH]c(N)n2)[C@@H]1CNC(=O)c1cc(Br)c[nH]1 (stereo not given in full)

IC50 [8]: 18 µM
SMILES: Cn1cc(Br)cc1C(=O)NC[C@H]1CC2N=C(N)NC2[C@@H](c2c[nH]c(N)n2)[C@@H]1CNC(=O)c1cc(Br)c[nH]1 (stereo not given in full)

The next lines start with the compound.

SMILES: CO[C@]12C[C@@H](CNC(=O)c3cc(Br)c[nH]3)O[C@H]1NC(=O)N2
IC50 (L1210): 19.6 µM

SMILES: CO[C@@]12C[C@@H](CNC(=O)c3cc(Br)c[nH]3)O[C@@H]1NC(=O)N2
IC50 (L1210): 20.9 µM

SMILES: O=C1NC2n3c(cc(Br)c3Br)C(=O)N3CCCC23N1 (stereo not given)
EC50 (NCI-H460): 1590 nM | EC50 (SK-MEL-5): 280 nM | EC50 (SF-295): 3.85 µM | EC50 (OVCAR-3): 1180 nM | EC50 (A498): 530 nM | EC50 (KM-20L2): 280 nM

SMILES: COC(=O)C(NCC(=O)c1cc(Br)c(Br)[nH]1)C(C)C (stereo not given)
IC50 (HepG2): 15.3 µM | IC50 (LoVo [1]): 960 nM | IC50 (Bel-7402): 27.8 µM | IC50 (MCF7 [2]): 28.6 µM | IC50 (CNE): 43.5 µM | IC50 (HeLa): 13.8 µM

SMILES: COCNC(=O)c1cc(Br)c(Br)[nH]1
EC50 (P388; read-out: ED50 (the source's name)): 69.4 µM

SMILES: Cc1ccccc1NC(=S)NNC(=O)c1cc(Br)c(Br)n1C
IC50 (WRL68): 70 nM | IC50 (Caco-2): 70 nM | IC50 (MCF7 [7]): 70 nM

SMILES: Cn1cc(Br)cc1C(=O)NC[C@H]1CC2N=C(N)NC2[C@@H](c2c[nH]c(N)n2)[C@@H]1CNC(=O)c1cc(Br)cn1C (stereo not given in full)
IC50 [8]: 18 µM

SMILES: CN1C(=O)C[C@H](C(N)=O)NC(=O)C(O)CNC(=O)[C@H](CNC(=O)c2cc(Br)c(Br)[nH]2)NC(=O)[C@H](CN)NC(=O)C1Cc1cnc(Cl)[nH]1 (stereo not given in full)
GI50 (MDA-MB-231 [12]): > 12 µM | GI50 (HT-29): > 12 µM | GI50 (A549 [13]): > 12 µM | GI50 (PSN1): > 12 µM

SMILES: NC1NC(/C=C/CNC(=O)c2cc(Br)c(Br)[nH]2)=C([n+]2cccc(O)c2)N1 (stereo not given)
IC50 (KB): 20.7 µM | IC50 (K562 [14]): 20.7 µM

SMILES: NC1NC[C@H](O)[C@@]2(N1)[C@H]1[C@H](CN3C(=O)c4cc(Br)cn4[C@H]4NC(N)N[C@@]413)[C@H](CNC(=O)c1cc(Br)c(Br)[nH]1)[C@@H]2Cl (stereo not given in full)
IC50 [5]: 26.1 µM | IC50 (KB): 26.7 µM | IC50 (L1210): 26.7 µM

SMILES: O=C(NNC(=S)Nc1ccc(Cl)cc1)c1cc(Br)c(Br)[nH]1
IC50 (WRL68): 30 nM | IC50 (Caco-2): 30 nM | IC50 (MCF7 [7]): 30 nM

SMILES: O=C(NNC(=S)Nc1ccc([N+](=O)[O-])cc1)c1cc(Br)c(Br)[nH]1
IC50 (WRL68): 30 nM | IC50 (Caco-2): 30 nM | IC50 (MCF7 [7]): 30 nM

SMILES: NC1=N[C@@]23CCCN2C(=O)c2c([nH]c(Br)c2Br)[C@H]3N1
IC50 (P388): 20.3 µM
